Assay results as given in patent US8088398B2, “Pharmaceutical compositions comprising fesoterodine” (UCB Pharma GmbH, priority 2006, dated 2012).

What was measured:
[1] = Storage in open vials at 40° C. and 75% r.H. (stability, HPLC); assay type: physicochemical
Description: Fesoterodine hydrogen fumarate, a granulate containing Fesoterodine hydrogen fumarate and xylitol in a weight-ratio of 10:90, as well as a composition comprising Fesoterodine hydrogen fumarate and xylitol were stored in open vials (25 ml brown glass bottles) for up to 12 weeks at 40° C. and 75% r.H. The results are shown in Table 4 below.
The degradation of Fesoterodine was measured by HPLC. The following conditions were used to measure degradation products in the stability testing of Fesoterodine hydrogen fumarate: • Column: Polaris C18-Ether, 3 μm, 250 mm×4.6 mm • Eluent A: Water/methanesulfonic acid 1000:0.5 (v/v) • Eluent B: Acetonitrile/methanesulfonic acid 1000:0.5 (v/v) • Typical gradient profile:
• Column temperature: 35° C. • Flow rate: 1.2 mL/min • Detection wavelength: 220 nm • Injection volume: 20 μL
The retention time of the Active Metabolite was about 4.1 min (rrt=0.50); response factor: 1.4.
Evaluation of the HPLC results was by the area percent method.
A comparison of the observed average purity of a Fesoterodine-containing granulate and a corresponding composition as compared to pure Fesoterodine after open storage under stress conditions is set out in Table 4, wherein values are indicated in % of Fesoterodine hydrogen fumarate remaining at various times.

[2] = tested on: patients with overactive bladder; experiment: Efficacy trial of Fesoterodine fumarate vs tolterodine ER and placebo; assay type: in vivo, human; conditions: FAS with LOCF; for Number of micturitions per 24 hours, Treatment difference vs Pbo / Urge incontinence per 24 hours, Treatment difference vs Pbo: ANCOVA; for Treatment response (responder rate): end of treatment
Description: The Fesoterodine formulations were as follows: […]
The trial was conducted in 19 countries. A total of 1135 subjects were randomized and 1103 subjects were included in the full analysis set: 279 in the placebo treatment group, 265 in the 4 mg Fesoterodine treatment group, 276 in the 8 mg Fesoterodine treatment group, and 283 in the 4 mg tolterodine ER treatment group. The mean age of subjects was 57 years. A total of 81% were female and 97% were white. There were no notable differences among the treatment groups with respect to gender, race, age, or weight/BMI.

[3] = tested on: healthy male and female human subjects; experiment: Electrocardiographic effects (QT) of Fesoterodine formulations; assay type: in vivo; conditions: for QTc outlier analyses vs placebo: three days of treatment
Description: Fesoterodine formulations were administered orally to steady state at dosages of 4 mg and 28 mg per day to healthy male and female human subjects and the effect of such administration on QT values was determined.
The Fesoterodine 4 mg formulation was as follows. Higher dosage levels were obtained by administering multiple 4 mg formulations.
Steady state was determined by pharmacokinetic analysis of the Active Metabolite. Assay sensitivity was shown by a significant increase from baseline in QTcF and QTcI after multiple doses of moxifloxacin. The mean time-averaged QTcF increased by 8.6 ms after three days of treatment with moxifloxacin.
The study design was double-blind, single-site, randomized, placebo- and positive controlled, parallel. Two hundred and fifty-six male and female subjects were assigned to one of the following four treatment groups (N=64 each; at least 50% female): • Fesoterodine 4 mg.day • Fesoterodine 28 mg/day • Moxifloxacin 400 mg/day • Placebo
Subjects were administered 3 days of one of the above four treatments. Three 12-lead ECGs were downloaded from an H-12 flash card (data carrier) at each of the following time points on Days −1, 1, and 3: 1, 2, 3, 4, 6, 8, 10, 12, 14, 16, 18, and 23.5 hours. Plasma samples for the determination of Active Metabolite concentration (and the concentration of further metabolites) were drawn on Day 1 and Day 3 predose and at 1, 2, 3, 4, 6, 8, 12, and 23.5 hours postdose.

[4] = Stability of blends of Fesoterodine with sugar alcohols / lactose; assay type: physicochemical
Description: Blends of Fesoterodine hydrogen fumarate with xylitol, sorbitol, mannitol and maltitol were stored for 6 weeks and 3 months in closed vials at 25° C. and 60% r.H., in closed vials at 40° C. and 75% r.H., or in open vials at 40° C. and 75% r.H. and then tested for stability by measuring the purity of Fesoterodine. The initial purity of the Fesoterodine in the blends was 99.7%.

[5] = tested on: patients with overactive bladder; experiment: Treatment-emergent adverse events in the efficacy trial (safety set)
Description: A randomized, double-blind, double dummy, placebo and active-controlled trial in adult male and female human subjects was conducted.
For the safety set, the number of patients were: 283 in the placebo treatment group, 272 in the Fesoterodine 4 mg/day treatment group, and 287 in the Fesoterodine 8 mg/day treatment group.

[6] = Degradation of Fesoterodine during tablet production and storage; assay type: physicochemical
Description: Granulates of Fesoterodine with various sugars and sugar alcohols were produced as described in Example 1. These granulates were then used to produce 4 mg tablets according to Example 2.1 and with the composition given as “Example C” in Table 1, as well as wherein the xylitol was substituted with mannitol, maltitol, sorbitol, or lactose.

[7] = 4 mg/day, N = 272, listed as Feso
[8] = 8 mg/day, N = 287, listed as Feso

## CC(C)C(=O)Oc1ccc(CO)cc1[C@H](CCN(C(C)C)C(C)C)c1ccccc1 [Fesoterodine, 2-[(1R)-3-(diisopropylamino)-1-phenylpropyl]-4-(hydroxymethyl)phenyl isobutyrate]
[1]; 1 week
  % of Fesoterodine hydrogen fumarate remaining (purity): 98.56%
[1]; 2 weeks
  % of Fesoterodine hydrogen fumarate remaining (purity): 97.67%
[1]; 4 weeks
  % of Fesoterodine hydrogen fumarate remaining (purity): 94.32%
[1]; 12 weeks
  % of Fesoterodine hydrogen fumarate remaining (purity): about 50%
[1]; 12 weeks, listed as Fesoterodine (pure)
  % of Fesoterodine hydrogen fumarate remaining (purity): 50.39%
[1]; Initial
  % of Fesoterodine hydrogen fumarate remaining (purity): 98.96%
[2]; 4 mg vs Pbo
  Number of micturitions per 24 hours, Treatment difference vs Pbo: −0.81
  Urge incontinence per 24 hours, Treatment difference vs Pbo: −0.81
[2]; 4 mg
  Number of micturitions per 24 hours, ANCOVA Endpoint LS Mean: −1.76
  Urge incontinence per 24 hours, ANCOVA Endpoint LS Mean: −1.95
[2]; 4 mg/day
  Number of micturitions per 24 hours, change from baseline at end of treatment, Mean (SD): −1.74 (2.66)
  Urge incontinence per 24 hours, change from baseline at end of treatment, Mean (SD): −1.44 (2.75)
  Treatment response (responder rate): 75%
[2]; 8 mg vs Pbo
  Number of micturitions per 24 hours, Treatment difference vs Pbo: −0.93
  Urge incontinence per 24 hours, Treatment difference vs Pbo: −1.08
[2]; 8 mg
  Number of micturitions per 24 hours, ANCOVA Endpoint LS Mean: −1.88
  Urge incontinence per 24 hours, ANCOVA Endpoint LS Mean: −2.22
[2]; 8 mg/day
  Number of micturitions per 24 hours, change from baseline at end of treatment, Mean (SD): −1.94 (3.15)
  Urge incontinence per 24 hours, change from baseline at end of treatment, Mean (SD): −1.81 (2.35)
  Treatment response (responder rate): 79%
[3]; 4 mg Fesoterodine per day, after three days of treatment
  mean time-averaged QTcF decrease: 4.6 ms
[3]; 28 mg Fesoterodine per day, after three days of treatment
  mean time-averaged QTcF decrease: 5.0 ms
[3]; multiple 4 mg and 28 mg doses
  effect on myocardial repolarization (QTcF and QTcI vs placebo): did not exert an effect on myocardial repolarization
[3]
  QTc outlier analyses vs placebo: no differences between the Fesoterodine treatment groups and placebo
[4]; closed vial 25° C., 60% r.H., 3 months
  Purity of Fesoterodine in blends: 99.7%
[4]; closed vial 25° C., 60% r.H., 6 weeks
  Purity of Fesoterodine in blends: 99.6%
[4]; closed vial 40° C., 75% r.H., 6 weeks
  Purity of Fesoterodine in blends: 99.3%
[4]; open vial 40° C., 75% r.H., 3 months
  Purity of Fesoterodine in blends: 53.1%
[4]; open vial 40° C., 75% r.H., 6 weeks
  Purity of Fesoterodine in blends: 96.3%
[5]; 4 mg/day
  incidence of blurred vision: 1%
  incidence of dry throat: 1%
  incidence of urinary retention: 1%
[5]; 4 mg/day, N = 272
  Any adverse event, subjects (%): 50%
  Any adverse event, subjects n: 135
  Constipation, subjects (%): 3%
  Constipation, subjects n: 9
  Fatigue, subjects (%): (<1) %
  Fatigue, subjects n: 1
  Headache, subjects (%): (4) %
  Headache, subjects n: 12
  Keratoconjunctivitis sicca, subjects (%): 2%
  Keratoconjunctivitis sicca, subjects n: 6
  Mouth dry, subjects (%): 22%
  Mouth dry, subjects n: 59
  Nasopharyngitis, subjects (%): (3) %
  Nasopharyngitis, subjects n: 8
  Urinary tract infection, subjects (%): (3) %
  Urinary tract infection, subjects n: 8
[5]; [7]
  Any adverse event, subjects (%): (50) %
  Constipation, subjects (%): (3) %
  Keratoconjunctivitis sicca, subjects (%): (2) %
  Mouth dry, subjects (%): (22) %
[5]; 8 mg/day
  incidence of blurred vision: 1%
  incidence of dry throat: 3%
  incidence of urinary retention: 1%
[5]; 8 mg/day, N = 287
  Any adverse event, subjects (%): 58%
  Any adverse event, subjects n: 167
  Constipation, subjects (%): 5%
  Constipation, subjects n: 13
  Fatigue, subjects (%): (<1) %
  Fatigue, subjects n: 1
  Headache, subjects (%): (2) %
  Headache, subjects n: 7
  Keratoconjunctivitis sicca, subjects (%): 4%
  Keratoconjunctivitis sicca, subjects n: 12
  Mouth dry, subjects (%): 34%
  Mouth dry, subjects n: 97
  Nasopharyngitis, subjects (%): (2) %
  Nasopharyngitis, subjects n: 5
  Urinary tract infection, subjects (%): (3) %
  Urinary tract infection, subjects n: 9
[5]; [8]
  Any adverse event, subjects (%): (58) %
  Constipation, subjects (%): (5) %
  Keratoconjunctivitis sicca, subjects (%): (4) %
  Mouth dry, subjects (%): (34) %

## Cc1ccc(O)c([C@H](CCN(C(C)C)C(C)C)c2ccccc2)c1 [Tolt, tolterodine, reference compound]
[2]; 4 mg vs Pbo
  Number of micturitions per 24 hours, Treatment difference vs Pbo: −0.78
  Urge incontinence per 24 hours, Treatment difference vs Pbo: −0.60
[2]; 4 mg
  Number of micturitions per 24 hours, ANCOVA Endpoint LS Mean: −1.73
  Urge incontinence per 24 hours, ANCOVA Endpoint LS Mean: −1.74
[2]; 4 mg/day
  Number of micturitions per 24 hours, change from baseline at end of treatment, Mean (SD): −1.69 (2.42)
  Urge incontinence per 24 hours, change from baseline at end of treatment, Mean (SD): −1.43 (2.20)
  Treatment response (responder rate): 72%

## COc1c(N2C[C@@H]3CCCN[C@@H]3C2)c(F)cc2c(=O)c(C(=O)O)cn(C3CC3)c12 [moxifloxacin, reference compound]
[3]; moxifloxacin 400 mg/day, after three days of treatment
  mean time-averaged QTcF increase: 8.6 ms
[3]
  QTc outlier analyses vs placebo: a higher incidence of QTc outliers

## maltitol
[6]
  hydrolyzation products and total degradation products in tablets prepared with the granulates: 1.1-1.7%
